Here are results for nine molecules from paper PMC7026882, “Macrofilaricidal Benzimidazole–Benzoxaborole Hybrids as an Approach to the Treatment of River Blindness: Part 2. Ketone Linked Analogs” (ACS Infectious Diseases, 2019).

The first data set deals with O. volvulus. Description: O. volvulus molting assay. To be noted: Onchocerca volvulus; molting assay. In kind it is cell-based. The source says: As summarized in Table 1, we were encouraged to find that the initial ketone analogs prepared, namely, 15 (6-linked) and 20 (5-linked), were quite active in an O. volvulus molting assay we used as a primary indicator of antiparasitic activity[30],[31] and were only weakly active in a G2/M arrest,[32] indicative of the interaction with mammalian tubulin. As described above, our hypothesis was to reduce Pgp efflux liability through elimination of the hydrogen-bond donor associated with the N–H of the amide linker, as this has been shown in the literature to be a contributor to recognition by Pgp.[33],[34] […] We were disappointed to find that the 5-linked analog 22 was poorly selective and the 6-linked analog 23 was only weakly active. […]
in comparison to the number of control larvae that had successfully molted. IC50 values were calculated using GraphPad Prism v6.0 (http://www.graphpad.com). See Bullman et al., PLoS
Negl. Trop. Dis., 2015, 9, e3534 for further details.
Adult Brugia malayi in vivo model procedure.
Gerbils (Meriones unguiculatus) were infected by transplantation of 10 male and 10 female adult Brugia malayi into the peritoneal cavity. Gerbils were acclimated for 7 days prior to treatment. Animals were dosed based on their body weight prior to each dosing. Animals were administered their doses at the same time each day and receive standard rodent laboratory diet and water ad libitum. Gerbils were humanely euthanized at the conclusion of each study.
Peritoneal counts of male and female adult B. malayi and visual condition of the peritoneum […]
L3 Brugia pahangi in vivo model procedure.
Male gerbils (Meriones unguiculatus) approximately 6 weeks of age (50-60 g) were purchased from Charles Rivers (USA, Kingston K62 Gerbils) and infected by intraperitoneal injection with 200 Brugia pahangi third-stage larvae (L3) per animal (Filariatech, Inc., Athens, GA). Gerbils were housed with no more than 5 animals per cage and maintained 9 months prior to treatment. All gerbils were dosed in accordance with their body weight determined prior to each dosing. Animals were administered their doses at the same time each day and are allowed to feed and drink ad libitum. Gerbils were euthanized following approved institutional protocols. Euthanized animals were weighed and examined for external and visceral pathologies. The adult Brugia worms were recovered by opening the body cavity and washing the peritoneal cavity with 100 mL of phosphate buffered saline. Male and female worms were counted using a dissecting microscope.
Litomosoides sigmodontis in vivo model procedure. 2
All animal experiments with L. sigmodontis were conducted at the Institute for Medical Microbiology, Immunology and Parasitology (IMMIP), University Hospital of Bonn, in accordance to the European Union animal welfare guidelines. All protocols were approved by the local authorities (Landesamt für Natur, Umwelt und Verbraucherschutz, Cologne, Germany (AZ 84- […]
Janvier (Saint-Berthevin, France) and were housed at the animal facility of the IMMIP in individually ventilated cages on a 12h light/dark cycle with food and water ad libidum. Mice were infected at 6-8 weeks of age via exposure to the natural mite vector Ornithonyssus bacoti
As a reminder, the IC50 is the midpoint of a concentration-inhibition curve. A higher IC50 goes with lower potency. On to `COC(=O)Nc1nc2cc(C(=O)c3ccc4c(c3)COB4O)ccc2[nH]1` [compound 20], for which the IC50 was 112 nM. This counts as sub-micromolar.
Same read-out and setting: the figure for `COC(=O)Nc1nc2cc(C(=O)c3ccc4c(c3)C(C)(C)OB4O)ccc2[nH]1` [compound 22] is 10 nM; for `COC(=O)Nc1nc2ccc(C(=O)c3ccc(F)c4c3B(O)OC4)cc2[nH]1` [compound 26] it is 20 nM; for `COC(=O)Nc1nc2ccc(C(=O)c3cc(F)cc4c3B(O)OC4)cc2[nH]1` [compound 27] it is 270 nM.
Still for that read-out and setting: the result for `COC(=O)Nc1nc2ccc(C(=O)c3c(F)ccc4c3B(O)OC4)cc2[nH]1` [compound 28] reads 1310 nM; that for `COC(=O)Nc1nc2ccc(C(=O)c3ccc(Cl)c4c3B(O)OC4)cc2[nH]1` [compound 31], 30 nM; that for `COC(=O)Nc1nc2cc(C(=O)CCc3ccc4c(c3)B(O)OC4(C)C)ccc2[nH]1` [compound 32], 290 nM.

The subject of another data set is mammalian tubulin (G2/M arrest). Description: G2/M arrest assay, indicative of interaction with mammalian tubulin. In kind it is cell-based.
Details: not given
The text has this: (§1) As summarized in Table 1, we were encouraged to find that the initial ketone analogs prepared, namely, 15 (6-linked) and 20 (5-linked), were quite active in an O. volvulus molting assay we used as a primary indicator of antiparasitic activity[30],[31] and were only weakly active in a G2/M arrest,[32] indicative of the interaction with mammalian tubulin. As described above, our hypothesis was to reduce Pgp efflux liability through elimination of the hydrogen-bond donor associated with the N–H of the amide linker, as this has been shown in the literature to be a contributor to recognition by Pgp.[33],[34] […] We were disappointed to find that the 5-linked analog 22 was poorly selective and the 6-linked analog 23 was only weakly active.
On to `COC(=O)Nc1nc2cc(C(=O)c3ccc4c(c3)COB4O)ccc2[nH]1` [compound 20], for which the midpoint of inhibition, the IC50, lay at 9800 nM.
Same read-out and setting: the result for `COC(=O)Nc1nc2cc(C(=O)c3ccc4c(c3)C(C)(C)OB4O)ccc2[nH]1` [compound 22] reads 280 nM; that for `COC(=O)Nc1nc2ccc(C(=O)c3ccc(F)c4c3B(O)OC4)cc2[nH]1` [compound 26], 30300 nM.
Still for that read-out and setting: the figure for `COC(=O)Nc1nc2ccc(C(=O)c3cc(F)cc4c3B(O)OC4)cc2[nH]1` [compound 27] is 22000 nM; for `COC(=O)Nc1nc2ccc(C(=O)c3c(F)ccc4c3B(O)OC4)cc2[nH]1` [compound 28] it is over 100000 nM; for `COC(=O)Nc1nc2ccc(C(=O)c3ccc(Cl)c4c3B(O)OC4)cc2[nH]1` [compound 31] it is 11600 nM.
Molecule `COC(=O)Nc1nc2cc(C(=O)CCc3ccc4c(c3)B(O)OC4(C)C)ccc2[nH]1` [compound 32] registered an IC50 of 460 nM.
The same measure, in the same setting: the result for `COC(=O)Nc1nc2cc(C(=O)CCCc3ccc4c(c3)B(O)OC4(C)C)ccc2[nH]1` [compound 33] reads 20 nM.

Test system in a further data set: not listed separately
As to the kind of experiment: Metabolic stability (Clint) in gerbil microsomes. In kind it is in vitro ADME.
Details: not given
From the text: as §1
What is called microsomal CLint is the rate of metabolic loss divided by the concentration. A high value points to rapid turnover. `COC(=O)Nc1nc2cc(C(=O)c3ccc4c(c3)COB4O)ccc2[nH]1` [compound 20] registered a microsomal CLint of 11.7 µL/min/mg.
`COC(=O)Nc1nc2ccc(C(=O)c3ccc(F)c4c3B(O)OC4)cc2[nH]1` [compound 26] came in with a microsomal CLint of 11.6 µL/min/mg.
The same measure, in the same setting: the result for `COC(=O)Nc1nc2ccc(C(=O)c3cc(F)cc4c3B(O)OC4)cc2[nH]1` [compound 27] reads under 4 µL/min/mg; that for `COC(=O)Nc1nc2ccc(C(=O)c3ccc(Cl)c4c3B(O)OC4)cc2[nH]1` [compound 31], under 4 µL/min/mg; that for `COC(=O)Nc1nc2cc(C(=O)CCc3ccc4c(c3)B(O)OC4(C)C)ccc2[nH]1` [compound 32], 26.7 µL/min/mg.

Test system in a further data set: not listed separately
As to the kind of experiment: Metabolic stability (Clint) in human microsomes. In kind it is in vitro ADME.
Details: not given
From the text: as §1
For the molecule `COC(=O)Nc1nc2ccc(C(=O)c3ccc(F)c4c3B(O)OC4)cc2[nH]1` [compound 26], the microsomal CLint stood at 11.1 µL/min/mg.
`COC(=O)Nc1nc2ccc(C(=O)c3cc(F)cc4c3B(O)OC4)cc2[nH]1` [compound 27]: the microsomal CLint is under 4 µL/min/mg.
`COC(=O)Nc1nc2ccc(C(=O)c3ccc(Cl)c4c3B(O)OC4)cc2[nH]1` [compound 31] displayed a microsomal CLint of under 4 µL/min/mg.
Molecule `COC(=O)Nc1nc2cc(C(=O)CCc3ccc4c(c3)B(O)OC4(C)C)ccc2[nH]1` [compound 32] yielded a microsomal CLint of 7.63 µL/min/mg.

The test system of a further data set is P-gp (MDR1). As to the kind of experiment: MDCK-MDR1 cell monolayer permeability assay. In kind it is in vitro ADME. To be noted: dog.
From the text: as §1
A word on the Papp A→B: it is the apparent permeability from the apical to the basolateral side of a cell layer. A higher Papp A→B goes with fast passage. The molecule `COC(=O)Nc1nc2cc(C(=O)c3ccc4c(c3)COB4O)ccc2[nH]1` [compound 20] gave a Papp A→B of 11.7 ×10⁻⁶ cm/s.
In the case of `COC(=O)Nc1nc2cc(C(=O)c3ccc4c(c3)C(C)(C)OB4O)ccc2[nH]1` [compound 22], the Papp A→B worked out at 26.2 ×10⁻⁶ cm/s.
`COC(=O)Nc1nc2ccc(C(=O)c3ccc(F)c4c3B(O)OC4)cc2[nH]1` [compound 26] had an apparent permeability from apical to basolateral (Papp A→B) of 21.7 ×10⁻⁶ cm/s.
The same measure, in the same setting: the result for `COC(=O)Nc1nc2ccc(C(=O)c3cc(F)cc4c3B(O)OC4)cc2[nH]1` [compound 27] reads 32 ×10⁻⁶ cm/s; that for `COC(=O)Nc1nc2ccc(C(=O)c3ccc(Cl)c4c3B(O)OC4)cc2[nH]1` [compound 31], 28 ×10⁻⁶ cm/s.
On the same count and under the same terms, the figure for `COC(=O)Nc1nc2cc(C(=O)CCc3ccc4c(c3)B(O)OC4(C)C)ccc2[nH]1` [compound 32] is 16 ×10⁻⁶ cm/s.

Test system in the next data set: not listed separately
Description: Pharmacokinetics in Mongolian gerbils. In kind it is in vivo. To be noted: blood, 2 mg/kg; Mongolian gerbils, dose 2, IV; read-out: AUC0–24. The text has this:
In addition, the concentrations achieved at these doses were well in excess of the O. volvulus IC50, a requirement for in vivo activity that we had hypothesized on the basis of earlier work in the amide-linked series.
`COC(=O)Nc1nc2cc(C(=O)c3ccc4c(c3)COB4O)ccc2[nH]1` [compound 20]: the AUC(0-t) was 1160 ng·h/mL.
Still for that read-out and setting: the figure for `COC(=O)Nc1nc2ccc(C(=O)c3ccc(F)c4c3B(O)OC4)cc2[nH]1` [compound 26] is 18600 ng·h/mL.

The data set is the same for the next values; noted with them: blood, 2 mg/kg; Mongolian gerbils, dose 2, IV; read-out: Cmax.
One may read the Cmax as the highest concentration seen after dosing. Consider `COC(=O)Nc1nc2cc(C(=O)c3ccc4c(c3)COB4O)ccc2[nH]1` [compound 20], for which the Cmax was determined as 2000 ng/mL.
Still for that read-out and setting: the figure for `COC(=O)Nc1nc2ccc(C(=O)c3ccc(F)c4c3B(O)OC4)cc2[nH]1` [compound 26] is 10900 ng/mL.

The same data set, now with this note: blood, 10 mg/kg; Mongolian gerbils, dose 10, PO; read-out: AUC0–24.
In the case of `COC(=O)Nc1nc2cc(C(=O)c3ccc4c(c3)COB4O)ccc2[nH]1` [compound 20], the AUC(0-t) was 990 ng·h/mL.
On the same count and under the same terms, the figure for `COC(=O)Nc1nc2ccc(C(=O)c3ccc(F)c4c3B(O)OC4)cc2[nH]1` [compound 26] is 23500 ng·h/mL.

Still in this data set, the particulars now being: blood, 10 mg/kg; Mongolian gerbils, dose 10, PO; read-out: Cmax.
Take `COC(=O)Nc1nc2cc(C(=O)c3ccc4c(c3)COB4O)ccc2[nH]1` [compound 20]: the Cmax turned out to be 480 ng/mL.
The same measure, in the same setting: the result for `COC(=O)Nc1nc2ccc(C(=O)c3ccc(F)c4c3B(O)OC4)cc2[nH]1` [compound 26] reads 1690 ng/mL.

The same data set, now with this note: blood, po, 10 mg/kg, Mongolian gerbils, dose 10, PO; read-out: bioavailability (%F).
Usually bioavailability stands for dose-corrected exposure relative to a reference, in per cent. With `COC(=O)Nc1nc2cc(C(=O)c3ccc4c(c3)COB4O)ccc2[nH]1` [compound 20], the bioavailability is 17%.
On to `COC(=O)Nc1nc2ccc(C(=O)c3ccc(F)c4c3B(O)OC4)cc2[nH]1` [compound 26], for which the bioavailability stood at 24%.

The next data set deals with P-glycoprotein transporter (Pgp).
Assay: not given
Set-up: method as in PMID 30650084. To be noted: limits oral bioavailability; cited from earlier work.
As to `COC(=O)Nc1nc2cc(C(=O)NCc3ccc4c(c3)B(O)OC4(C)C)ccc2[nH]1` [compound 4], the “efflux via P-glycoprotein transporter (Pgp)” value is “subject to efflux”.

A further data set deals with LF (lymphatic filariasis).
Assay: not given
Set-up: method as in PMID 30650084. To be noted: by route of administration; cited from earlier work.
On to `COC(=O)Nc1nc2cc(C(=O)NCc3ccc4c(c3)B(O)OC4(C)C)ccc2[nH]1` [compound 4], for which the “activity in in vivo models of LF” value is given as “only active in in vivo models of LF following subcutaneous administration”.
